{
  "source": "patent US10208063B2",
  "about": "“ACC inhibitors and uses thereof” (Gilead Apollo, LLC, priority 2013, dated 2019)",
  "origin": "cited, not measured here",
  "key": {"[1]": {"details": "rats, acute (46 min) treatment"}, "[2]": {"system": "insulin-resistant rat muscle tissue", "details": "within 30 min of compound administration"}, "[3]": {"target": "T1, propionyl-CoA carboxylase (Homo sapiens, UniProt P05165+P05166)", "T1 sequence (P05165 53-728)": "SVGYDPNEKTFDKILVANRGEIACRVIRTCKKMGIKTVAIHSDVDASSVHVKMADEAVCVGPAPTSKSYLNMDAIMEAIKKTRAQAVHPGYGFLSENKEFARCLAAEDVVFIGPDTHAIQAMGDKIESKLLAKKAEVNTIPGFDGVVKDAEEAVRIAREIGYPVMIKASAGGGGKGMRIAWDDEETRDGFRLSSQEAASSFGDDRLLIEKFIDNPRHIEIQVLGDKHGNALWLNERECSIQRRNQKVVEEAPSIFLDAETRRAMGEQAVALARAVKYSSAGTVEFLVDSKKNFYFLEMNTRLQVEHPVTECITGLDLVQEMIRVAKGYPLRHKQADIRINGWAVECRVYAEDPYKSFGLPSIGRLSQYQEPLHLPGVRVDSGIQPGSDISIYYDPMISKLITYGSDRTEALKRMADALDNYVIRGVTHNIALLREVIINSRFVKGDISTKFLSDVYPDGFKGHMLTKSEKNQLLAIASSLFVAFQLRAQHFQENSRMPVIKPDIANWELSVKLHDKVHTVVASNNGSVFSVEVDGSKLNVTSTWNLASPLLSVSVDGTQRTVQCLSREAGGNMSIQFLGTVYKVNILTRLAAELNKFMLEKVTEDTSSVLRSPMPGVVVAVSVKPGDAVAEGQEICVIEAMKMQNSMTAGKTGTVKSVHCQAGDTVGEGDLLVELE", "T1 sequence (P05166 29-539)": "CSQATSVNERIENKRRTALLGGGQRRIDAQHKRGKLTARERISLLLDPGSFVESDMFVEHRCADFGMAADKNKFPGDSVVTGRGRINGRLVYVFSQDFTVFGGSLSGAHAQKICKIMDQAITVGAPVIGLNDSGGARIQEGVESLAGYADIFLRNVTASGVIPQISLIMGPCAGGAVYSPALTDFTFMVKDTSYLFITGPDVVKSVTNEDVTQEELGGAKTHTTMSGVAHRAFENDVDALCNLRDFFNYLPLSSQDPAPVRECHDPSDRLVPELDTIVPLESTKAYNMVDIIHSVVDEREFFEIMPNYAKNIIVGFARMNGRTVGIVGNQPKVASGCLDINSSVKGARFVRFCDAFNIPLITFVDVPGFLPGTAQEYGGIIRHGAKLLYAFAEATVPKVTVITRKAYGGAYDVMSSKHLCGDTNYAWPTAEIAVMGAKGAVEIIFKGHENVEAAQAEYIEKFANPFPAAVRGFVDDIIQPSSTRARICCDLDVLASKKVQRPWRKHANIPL"}, "ACC2": {"system": "ACC2", "details": "ACC2 isolated from rat, mouse, monkey and human"}, "pyruvate carboxylase": {"target": "T2, pyruvate carboxylase (Homo sapiens, UniProt P11498)", "T2 sequence (P11498 21-1178)": "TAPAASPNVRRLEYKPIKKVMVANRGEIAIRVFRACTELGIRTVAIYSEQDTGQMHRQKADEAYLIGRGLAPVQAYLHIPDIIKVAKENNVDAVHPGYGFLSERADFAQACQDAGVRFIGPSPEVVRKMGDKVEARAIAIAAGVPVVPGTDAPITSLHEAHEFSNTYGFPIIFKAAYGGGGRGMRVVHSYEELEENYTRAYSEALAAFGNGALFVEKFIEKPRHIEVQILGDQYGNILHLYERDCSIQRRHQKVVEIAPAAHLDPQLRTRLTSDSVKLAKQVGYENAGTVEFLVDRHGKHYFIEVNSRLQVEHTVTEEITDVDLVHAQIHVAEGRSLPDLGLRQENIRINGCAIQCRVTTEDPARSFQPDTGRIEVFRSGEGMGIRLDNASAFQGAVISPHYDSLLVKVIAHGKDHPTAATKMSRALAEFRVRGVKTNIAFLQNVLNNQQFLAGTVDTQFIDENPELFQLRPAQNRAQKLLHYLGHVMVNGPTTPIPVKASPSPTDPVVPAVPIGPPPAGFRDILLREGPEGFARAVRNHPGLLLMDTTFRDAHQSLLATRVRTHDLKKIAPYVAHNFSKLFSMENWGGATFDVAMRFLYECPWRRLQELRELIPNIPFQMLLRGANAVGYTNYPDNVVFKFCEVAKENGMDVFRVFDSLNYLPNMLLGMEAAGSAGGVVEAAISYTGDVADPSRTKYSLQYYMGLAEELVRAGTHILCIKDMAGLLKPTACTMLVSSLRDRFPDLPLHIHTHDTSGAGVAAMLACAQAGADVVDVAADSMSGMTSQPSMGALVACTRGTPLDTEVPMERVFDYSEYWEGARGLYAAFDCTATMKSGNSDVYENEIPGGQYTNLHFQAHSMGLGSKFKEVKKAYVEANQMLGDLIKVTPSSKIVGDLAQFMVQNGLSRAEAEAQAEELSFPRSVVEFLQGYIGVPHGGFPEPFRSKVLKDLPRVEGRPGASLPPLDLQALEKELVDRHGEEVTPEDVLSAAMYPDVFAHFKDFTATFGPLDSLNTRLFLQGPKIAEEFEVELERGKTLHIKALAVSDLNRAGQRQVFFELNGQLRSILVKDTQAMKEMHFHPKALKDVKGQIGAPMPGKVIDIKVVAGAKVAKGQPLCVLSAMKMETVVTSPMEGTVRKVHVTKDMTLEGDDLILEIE"}, "ACC1": {"system": "ACC1", "details": "ACC1 isolated from rat, mouse, monkey and human"}, "[4]": {"details": "sucrose-fed rats, three weeks"}},
  "data": [
    {"smiles": "CO[C@H]1CCCC[C@@H](c2ccccc2)OC(=O)[C@@H](C)[C@@]2(O)O[C@H]([C@@H](C)[C@H](O)[C@H]2OC)[C@@H](C)/C=C/[C@H]1OC", "note": "[soraphen A]", "values": [
      {"measurement": "lipogenesis", "setting": "liposarcoma", "result": "inhibited"},
      {"measurement": "tumor cell growth", "setting": "liposarcoma", "result": "inhibited"}
    ]},
    {"smiles": "O=C(c1c2ccccc2cc2ccccc12)N1CCC(N2CCC[C@@H](C(=O)N3CCOCC3)C2)CC1", "note": "[CP-640186]", "values": [
      {"measurement": "FA clearance", "setting": "[1]", "result": "stimulated"},
      {"measurement": "glucose clearance", "setting": "[1]", "result": "without decreasing"},
      {"measurement": "insulin sensitivity", "setting": "[2]", "result": "stimulation"},
      {"measurement": "inhibition of propionyl-CoA carboxylase", "setting": "[3]", "result": "without inhibiting"},
      {"measurement": "IC50", "setting": "ACC2", "result": "~60", "unit": "nM"},
      {"measurement": "inhibition of pyruvate carboxylase", "setting": "pyruvate carboxylase", "result": "without inhibiting"},
      {"measurement": "IC50", "setting": "ACC1", "result": "~60", "unit": "nM"},
      {"measurement": "CPT-I activity", "setting": "Hep-G2 cells", "result": "increased"},
      {"measurement": "FA synthesis", "setting": "Hep-G2 cells", "result": "reduced"},
      {"measurement": "apoA1 secretion", "setting": "Hep-G2 cells", "result": "without affecting"},
      {"measurement": "apoB secretion", "setting": "Hep-G2 cells", "result": "reduced"},
      {"measurement": "cholesterol synthesis", "setting": "Hep-G2 cells", "result": "without affecting"},
      {"measurement": "triglyceride synthesis and secretion", "setting": "Hep-G2 cells", "result": "reduced"},
      {"measurement": "liver and adipose tissue FA synthesis", "setting": "experimental animals", "result": "reduced"},
      {"measurement": "whole body FA oxidation", "setting": "experimental animals", "result": "increased"},
      {"measurement": "malonyl-CoA concentration", "setting": "lipogenic and oxidative tissues, fed and fasted state", "result": "acutely reduced"},
      {"measurement": "FA oxidation", "setting": "C2C12 cells", "result": "stimulated"},
      {"measurement": "FA oxidation", "setting": "rat muscle slices", "result": "stimulated"},
      {"measurement": "insulin sensitivity", "setting": "[4]", "result": "improved"},
      {"measurement": "leptin levels", "setting": "[4]", "result": "reduced"},
      {"measurement": "liver, muscle and adipose triglycerides", "setting": "[4]", "result": "time- and dose-dependently reduced"},
      {"measurement": "body weight", "setting": "[4]; selective fat reduction without reducing lean body mass", "result": "reduced"},
      {"measurement": "hyperinsulinemia produced by the high sucrose diet", "setting": "[4]; without changing plasma glucose levels", "result": "reduced"}
    ]}
  ]
}
